Patent US20100144708A1, “HETEROCYCLIC COMPOUNDS CONTAINING NITROGEN ATOMS OR PHARMACEUTICALLY ACCEPTABLE SALTS THEREOF, PROCESS FOR THE PREPARATION THEREOF AND PHARMACEUTICAL COMPOSITION COMPRISING THE SAME FOR TREATMENT OF CANCER” (Korea Research Instititute of Bioscience and Biotechnology, priority 2006, published 2010)

Experiments:
Assay type in all cases: cell-based, Human
NUGC-3 (gastric cancer) = experiment: Test for inhibition of tumor cell growth (SRB), NUGC-3; details: 48 hours, SRB staining; for GI50: Homo sapiens, NUGC-3
Method: (§1) Human tumor cell lines, PC-3 (prostate cancer, ATCC, USA), MBA-MB-231 (breast cancer, ATCC, USA), ACHN (kidney cancer, ATCC, USA), and NUGC-3 (gastric cancer, ATCC, USA) were cultured in RPMI 1640 media containing 10% fetal bovine serum (FBS).
(§2) In order to measure anticancer activity, a suitable concentration of cells in RPMI 1640 media containing 5% fetal bovine serum (about 5×10^4 cells/□) was aliquotted in 96-well plates, and cultured in 5% CO2 at 37° C. On day one after aliquoting the cells, before the cells were treated with the compounds, in order to determine their concentration, 50[…] of 50% trichloroacetic acid was added to each well of time zero (T0) plate, and cells were fixed to determine zero point. The cells treated with the compounds were fixed on each well having 50[…] of 50% trichloroacetic acid after 48 hours. The final concentrations of the test compounds were 0.01, 0.03, 0.1, 0.3, and 1[…]/□. The fixed plate was washed with water and dried, and then 100[…] of 0.4% sulphorhodamine B (SRB) dissolved in 0.1% acetic acid was added to the each well to stain the cells. The plate was allowed to stand for 30 minutes, and then washed with 0.1% acetic acid. Then, the plate was dried at room temperature, and treated with 10 mM tris base (pH 10.5) to dissolve staining reagent. An absorbance measured at 540 nm was calculated as a percentage of the control group, and then the concentration of the compound that inhibited tumor cell growth (GI50(□/□)) by 50% was determined.

ACHN (kidney cancer) = experiment: Test for inhibition of tumor cell growth (SRB), ACHN; details: 48 hours, SRB staining; for GI50: Homo sapiens, ACHN
Method: as §1, §2

PC-3 (prostate cancer) = experiment: Test for inhibition of tumor cell growth (SRB), PC-3; details: 48 hours, SRB staining; for GI50: Homo sapiens, read-out: GI50 PC-3 (prostate ancer)
Method: as §1, §2

[1] = system: MBA-MB-231 (breast cancer); experiment: Test for inhibition of tumor cell growth (SRB), MBA-MB-231; details: 48 hours, SRB staining; for GI50: Homo sapiens
Method: as §1, §2

Molecule	GI50 NUGC-3 (gastric cancer) (NUGC-3 (gastric cancer)) [µg/mL]	GI50 ACHN (kidney cancer) (ACHN (kidney cancer)) [µg/mL]	GI50 PC-3 (prostate ancer) (PC-3 (prostate cancer)) [µg/mL]	GI50 MBA-MB-231 (breast cancer) [1] [µg/mL]	GI50 (NUGC-3 (gastric cancer)) [µg/mL]	GI50 (ACHN (kidney cancer)) [µg/mL]	GI50 (PC-3 (prostate cancer)) [µg/mL]	GI50 [1] [µg/mL]
1-(4-fluorobenzyl)-1-methyl-4-(octane-1-sulfonyppiperazin-1-ium bromide [Example 63]	>10	>10	>10	>10	–	–	–	–
1-allyl-1-methyl-4-(tetradecane-1-sulfonyppiperazin-1-ium bromide [Example 69]	0.59	0.59	0.68	1.16	–	–	–	–
1-ethyl-1-(3-nitrobenzyl)-4-tetradecanoylpiperazin-1-him bromide [Example 56]	1.22	1.93	0.52	1.13	–	–	–	–
CCCCCCCCCCCCCCCCCCCCCC(=O)N1CC[N+](C)(C)CC1 [Example 1, 4-docosanoyl-1,1-dimethylpiperazin-1-ium iodide]	–	–	–	–	1.15	2.39	0.99	3.51
CCCCCCCC(=O)N1CC[N+](C)(C)CC1.[I-] [Example 2, 1,1-dimethyl-4-octanoyl-piperazin-1-ium iodide]	–	–	–	–	> 10	> 10	> 10	> 10
CCCCCCCC(=O)N1CC[N+](C)(Cc2ccccc2)CC1.[Br-] [Example 3, 1-benzyl-1-methyl-4-octanoyl-piperazin-1-ium bromide]	–	–	–	–	> 10	> 10	> 10	> 10
C=CC[N+]1(C)CCN(C(=O)CCCCCCC)CC1.[Br-] [Example 4, 1-allyl-1-methyl-4-octanoyl-piperazin-1-ium bromide]	–	–	–	–	> 10	> 10	> 10	> 10
CCCCCCCC(=O)N1CC[N+](C)(Cc2ccc(OC)cc2)CC1.[Cl-] [Example 5, 1-(4-methoxy-benzyl)-1-methyl-4-octanoyl-piperazin-1-ium chloride]	–	–	–	–	> 10	> 10	> 10	> 10
CCCCCCCC(=O)N1CC[N+](C)(CC)CC1.[I-] [Example 6, 1-ethyl-1-methyl-4-octanoyl-piperazin-1-ium iodide]	–	–	–	–	> 10	> 10	> 10	> 10
CCCCCCCC(=O)N1CC[N+](CC)(Cc2ccccc2)CC1.[Br-] [Example 7, 1-benzyl-1-ethyl-4-octanoyl-piperazin-1-ium bromide]	–	–	–	–	> 10	> 10	> 10	> 10
CCCCCCCCCC(=O)N1CC[N+](C)(Cc2ccccc2)CC1 [Example 8, 1-benzyl-4-decanoyl-1-methyl-piperazin-1-ium bromide]	–	–	–	–	> 10	> 10	0.8	> 10
C=CC[N+]1(C)CCN(C(=O)CCCCCCCCC)CC1 [Example 9, 1-allyl-4-decanoyl-1-methyl-piperazin-1-ium bromide]	–	–	–	–	> 10	> 10	1.81	> 10
CCCCCCCCCC(=O)N1CC[N+](CC)(Cc2ccccc2)CC1 [Example 10, 1-benzyl-4-decanoyl-1-ethyl-piperazin-1-ium bromide]	–	–	–	–	> 10	> 10	> 10	> 10
C=CC[N+]1(CC)CCN(C(=O)CCCCCCCCC)CC1 [Example 11, 1-allyl-4-decanoyl-1-ethylpiperazin-1-ium bromide]	–	–	–	–	> 10	> 10	3.07	> 10
CCCCCCCCCC(=O)N1CC[N+](C)(CC)CC1 [Example 12, 4-decanoyl-1-ethyl-1-methylpiperazin-1-ium iodide]	–	–	–	–	> 10	> 10	> 10	> 10
C=CC[N+]1(C)CCN(C(=O)CCCCCCCCCCCCC)CC1 [Example 13, 1-allyl-1-methyl-4-tetradecanoyl-piperazin-1-ium bromide]	–	–	–	–	0.5	> 10	0.3	1.29
